In brackets after ≈: the same amount, converted by molar mass. Several values for one entry are separate records, joined by “and”; a condition that tells them apart may be missing. Identical values can stand only once. Entries after “also recorded” stand apart in the source; their conditions may differ. Like-named read-outs stand apart in the source and are kept apart here.
Experiments:
in vivo = conditions: male, CD1, mouse, iv, 30 mg/kg; for clearance / MRT / Vd / half-life: blood; for clearance: CL/CL_F; for clearance / MRT / Vd: IV 30 mg/kg; for Vd: Vdss; for half-life: t1/2, IV 30 mg/kg
[1] = system: S. aureus NRS 384 (USA300-0114); experiment: Murine neutropenic thigh infection model; assay type: in vivo, mice
S. aureus or MRSA = experiment: Bacteriolytic activity (time-kill, OD600); assay type: cell-based; conditions: twice the MIC, mid-exponential growth, over 20 hours
S. aureus (ATCC #29213) = assay type: cell-based
MDR S. aureus (CH-11) = experiment: Frequency of resistance (FoR) in vitro; assay type: cell-based
[2] = system: Enterococcus faecalis strain NBRC 100480
[3] = IV 30 mg/kg; for AUC % Back Extrapolation to C0 / AUC % Extrapolation to infinity / tlast: blood; for Mean Concentration in blood: male CD1 mice
[4] = Stability in human serum or plasma (MIC after incubation); assay type: in vitro ADME
Procedure: Stability studies were also performed in the presence of plasma or serum, or in whole blood.

A. baumannii (CH-46) = experiment: Frequency of resistance (FoR) in vitro; assay type: cell-based
[5] = system: Staphylococcus haemolyticus strain JCM 2416
S. aureus = experiment: Thermal and chemical (pH) short-term stability, antibacterial activity remaining; assay type: physicochemical; conditions: 4 to 60° C. for 18 hours, and 37° C. at pH 3.0-9.0
Procedure: Samples were clarified by centrifugation (16,000×g for 5 min) and soluble fractions were tested for antibacterial activity (against S. aureus) and examined by analytical HPLC.

J774A mouse BALB/c cells = experiment: Toxicity to mammalian cells (cell viability); conditions: up to 1,500 μg/mL, 24 hours
[6] = 1 mg/mL solution, pH 7.0, 10 minutes, centrifugation
[7] = Stability in whole blood and plasma (zone of inhibition, diffusion method); assay type: in vitro ADME, mouse; conditions: for Whole blood ZOI: 400 μg/mL added to mouse whole blood; for Plasma fraction ZOI: plasma from treated whole blood
Procedure: The antimicrobial activity remaining in blood was measured by the diffusion method and expressed as the zone of inhibition (ZOI), proportional to the amount of activity remaining in blood (Table 11). Zone of inhibition (ZOI) is a zone of bacteria free agar plate after depositing 2 μL of a tested sample. In parallel, CMB001 treated blood was centrifuged to remove blood cells and the level of CMB001 was tested in the supernatant (plasma).

[8] = individual animals 1-3, 30 mg/kg

C=C(NC(=O)[C@@H](NC(=O)[C@H](Cc1c[nH]cn1)NC(=O)[C@@H]1CS[C@@H](C)[C@H]2NC(=O)[C@H](C)NC(=O)[C@H](NC(=O)[C@H](CCC(N)=O)NC(=O)[C@@H](NC(=O)[C@H](Cc3ccccc3)NC(=O)[C@@H]3CS[C@@H](C)[C@@H](NC(=O)[C@@H](NC(=O)[C@@H]4CS[C@@H](C)[C@@H](NC(=O)[C@@H]5CSC[C@@H](NC(=O)[C@H](CCCCN)NC(=O)[C@@H](N)Cc6c[nH]c7ccccc67)C(=O)N[C@@H](CCC(N)=O)C(=O)NC(=C)C(=O)N[C@@H](Cc6ccccc6)C(=O)N5)C(=O)N5CCC[C@H]5C(=O)NCC(=O)N4)C(C)C)C(=O)NCC(=O)N[C@@H](C(C)C)C(=O)N[C@@H](CC(C)C)C(=O)N[C@@H](CCC(N)=O)C(=O)N/C(=C\C)C(=O)N3)[C@@H](C)CC)[C@H](C)SC[C@H](NC2=O)C(=O)N[C@@H](CC(N)=O)C(=O)N1)[C@@H](C)CC)C(=O)N[C@@H](CCCCN)C(=O)O [CMB001, WKAQX1FAX3PGAVX3GVLQX2AFIQX3AX3ANAHIX1K (SEQ ID NO: 1)]
clearance (in vivo; Mean/Median): 170 mL/min/kg | clearance (in vivo; individual animals 1-2): 166 mL/min/kg | MRT (in vivo; Mean/Median): 40.2 min | MRT (in vivo; individual animals 1-2): 42.6 min | Vd (in vivo; Mean/Median): 6.8 L/kg | Vd (in vivo; individual animals 1-2): 7 L/kg | half-life (in vivo; Mean/Median): 32.4 ± 9 min | half-life (in vivo; individual animals 1-2): 38.4 min | level at 0.08 h (in vivo; whole blood): 4770 ng/mL | level at 0.25 h (in vivo; whole blood): 2450 ng/mL | level at 0.5 h (in vivo; whole blood): 1280 ng/mL | level at 1 h (in vivo; whole blood): 916 ng/mL | level at time molar at 0.08 h (in vivo; whole blood): 1420 nM | level at time molar at 0.25 h (in vivo; whole blood): 733 nM | level at time molar at 0.5 h (in vivo; whole blood): 383 nM | level at time molar at 1 h (in vivo; whole blood): 274 nM | Bacterial burden compared to vehicle control ([1]; 0.5 to 10 mg/kg IV): dose dependent reduction of bacterial burden; also recorded: dose-dependent reduction of S. aureus in the thigh | Thigh burden compared to vehicle-treated group ([1]; 5 to 30 mg/kg IV at 1, 8 and 15 hours post-infection): Significant reduction of thigh burden | Survival to end of study ([1]; 5 to 30 mg/kg IV, 25 h post-infection): Most CMB001-treated animals survived until the end of the study | Thigh burden relative to pre-treatment levels ([1]; all doses, 5 to 30 mg/kg IV): reduced below pre-treatment levels | Bacteriolytic activity, change of OD600 (S. aureus or MRSA): marked decrease of OD600 | Frequency of resistance (FoR) (S. aureus (ATCC #29213); 2X MIC): 1.3 × 10^−8 | Frequency of resistance (FoR) (S. aureus (ATCC #29213); 3X MIC): 2.2 × 10^−9 | Frequency of resistance (FoR) (S. aureus (ATCC #29213); 4X MIC): 2.6 × 10^−9 | Frequency of resistance (FoR) (S. aureus (ATCC #29213); 5X MIC): 3.7 × 10^−10 | Frequency of resistance (FoR) (S. aureus (ATCC #29213); 10X MIC): <3.7 × 10^−10 | Frequency of resistance (FoR) (MDR S. aureus (CH-11); 2X MIC): 3.5 × 10^−9 | Frequency of resistance (FoR) (MDR S. aureus (CH-11); 3X MIC): 1.8 × 10^−9 | Frequency of resistance (FoR) (MDR S. aureus (CH-11); 4X MIC): 2.9 × 10^−8 | Frequency of resistance (FoR) (MDR S. aureus (CH-11); 5X MIC): 5.3 × 10^−10 | Frequency of resistance (FoR) (MDR S. aureus (CH-11); 10X MIC): <3.2 × 10^−10 | MIC90 [2]: 12.5 µg/mL (≈ 3.73 µM) | MIC range [2]: 6.2 to 12.5 µg/mL | Time at detectable levels in blood ([3]; LLOQ 500 ng/mL): at least 60 minutes | AUC % Back Extrapolation to C0 ([3]; Mean/Median): 16% | AUC % Extrapolation to infinity ([3]; Mean/Median): 29% | tlast ([3]; Mean/Median): 1.00 h | tlast ([3]; individual animals 1-3): 1.00 h | AUC % Back Extrapolation to C0 [3, 8]: 23% and 12% and 13% | AUC % Extrapolation to infinity [3, 8]: 26% and 22% and 41% | Mean Concentration in blood ([3]; 2.00 hours, LLOQ 500 ng/mL): BLQ* | Mean Concentration in blood ([3]; 4.00 hours, LLOQ 500 ng/mL): BLQ | Mean Concentration in blood ([3]; 8.00 hours, LLOQ 500 ng/mL): BLQ | Mean Concentration in blood ([3]; 24.00 hours, LLOQ 500 ng/mL): BLQ | Antibacterial activity after incubation in human serum or plasma ([4]; 8-hour incubation at 37° C.): retained full antibacterial activity | Antibacterial activity after incubation in human serum or plasma ([4]; 24-hour incubation): somewhat less active | Frequency of resistance (FoR) (A. baumannii (CH-46); 2X MIC): 1.1 × 10^−7 | Frequency of resistance (FoR) (A. baumannii (CH-46); 3X MIC): 2.9 × 10^−9 | Frequency of resistance (FoR) (A. baumannii (CH-46); 5X MIC): <1 × 10^−11 | Frequency of resistance (FoR) (A. baumannii (CH-46); 10X MIC): <1 × 10^−11 | MIC [5]: 6.25 µg/mL (≈ 1.87 µM) | Antibacterial activity (MIC) and chemical integrity after incubation (S. aureus): retained its full antibacterial activity (MIC) and chemical integrity | MIC range (Acinetobacter baumannii): 3.4 to 27.7 µg/mL | Cell viability (J774A mouse BALB/c cells): did not reduce cell viability | Solubility relative to initial concentration [6]: > 96% | Whole blood ZOI ([7]; 10 minutes): 10 mm | Whole blood ZOI ([7]; 60 minutes): 9 mm | Whole blood ZOI ([7]; 120 minutes): 8 mm | Whole blood ZOI ([7]; 180 minutes): 8 mm | Whole blood ZOI ([7]; 240 minutes): 8 mm | Adsorption onto blood cells ([7]; mouse blood, 400 μg/mL): not adsorbed onto blood cells | Activity in whole blood ([7]; mouse blood, 400 μg/mL, 0-4 hours): retains full activity in whole blood | Plasma fraction ZOI ([7]; 10 minutes): 11 mm | Plasma fraction ZOI ([7]; 60 minutes): 9 mm | Plasma fraction ZOI ([7]; 120 minutes): 8 mm | Plasma fraction ZOI ([7]; 180 minutes): 8 mm | Plasma fraction ZOI ([7]; 240 minutes): 7 mm | Spiked plasma control ZOI ([7]; plasma spiked with CMB001, 10 minutes): 9 mm | Spiked plasma control ZOI ([7]; plasma spiked with CMB001, 60 minutes): 11 mm | Spiked plasma control ZOI ([7]; plasma spiked with CMB001, 120 minutes): 11 mm | Spiked plasma control ZOI ([7]; plasma spiked with CMB001, 180 minutes): 11 mm | Spiked plasma control ZOI ([7]; plasma spiked with CMB001, 240 minutes): 10 mm

— US20220133846A1, “NOVEL ANTIMICROBIAL COMPOUND AND USES THEREOF” (priority 2019, published 2022)
